Test results as given in paper PMC4767605 (Cancer chemotherapy and pharmacology, 2016).

Experiments:
ovarian cancer (MCUAS) = assay: Ovarian cancer xenograft in mice, combination with paclitaxel; format: in vivo; conditions: ASP9853 in combination with paclitaxel, data not shown
[1] = Phase I study: plasma pharmacokinetics of ASP9853 and docetaxel; format: in vivo, human; conditions: for Median ASP9853 Cmax / Median AUC24 for ASP9853: Cycle 1/Day 1
[2] = Cohort 1: ASP9853 25 mg + docetaxel 60 mg/m^2
[3] = Cohort 2: ASP9853 25 mg + docetaxel 75 mg/m^2
[4] = Cohort 3: ASP9853 37.5 mg + docetaxel 60 mg/m^2
[5] = Cohort 4: ASP9853 50 mg + docetaxel 60 mg/m^2

## O.O.O=C(/C=C/c1ccc(Cl)cc1)N[C@@H](Cc1ccccn1)C(=O)NCC(=O)N1CCC(Oc2cc(C(F)(F)F)ncn2)CC1 [ASP9853, (2E)-3-(4-chlorophenyl)-N-[(1S)-2-oxo-2-{[2-oxo-2-(4-{[6-(trifluoromethyl)-4-pyrimidinyl]oxy}-1-piperidinyl)ethyl]amino}-1-(2-pyridinylmethyl)ethyl]acrylamide dehydrate]
Ovarian cancer (MCUAS)
  Tumor growth inhibition: greater tumor growth inhibition
[1]; Cycle 1, Day 1, high interpatient variability
  ASP9853 PK profiles in patients with versus without neutropenic DLTs: no clear difference
[1]; [2]
  Median ASP9853 Cmax: 747 ng/mL
  Median AUC24 for ASP9853: 3769 ng·h/mL
[1]; [3]
  Median ASP9853 Cmax: 1019 ng/mL
  Median AUC24 for ASP9853: 8839 ng·h/mL
[1]; [4]
  Median ASP9853 Cmax: 2450 ng/mL
  Median AUC24 for ASP9853: 7075 ng·h/mL
[1]; [5]
  Median ASP9853 Cmax: 1490 ng/mL
  Median AUC24 for ASP9853: 6922 ng·h/mL
[1]; in vivo
  ASP9853 cleared from plasma within 24 hours after administration: more than 95%
[1]; oral, patients with advanced solid tumors
  Tmax of ASP9853: 30 to 252 min
[1]; sample size too small for statistical significance, data not shown
  ASP9853 plasma exposure (AUC24) when administered in combination with docetaxel: appeared lower
